Like-named read-outs stand apart in the source and are kept apart here.

The test system of this assay is SARS-CoV-2. As to the kind of experiment: microbe, parasite or virus in culture. Type of assay: cell-based, SARS-CoV-2 variant omicron XBB.1.16.11. Conditions: for antiviral activity against SARS-CoV-2 (in words): up to 50 μM.
[1] abbreviates: Severe acute respiratory syndrome coronavirus 2, Vero C1008, read-out: EC50, concentration required to reduce the SARS-CoV-2 replication in Vero cells by 50%.
Setting [2] is: Severe acute respiratory syndrome coronavirus 2, plaque assay, SARS-CoV-2 in Vero cells, read-out: 95% confidence interval (CI) of EC50.

Regarding `CC(C)c1ccc(Cn2cc(/C=C/C(=O)/C=C(\O)C(=O)O)c3ccccc32)cc1` [5c], the EC50 under setting [1] turned out to be 9.41 ± 0.91 µM and the EC50 under setting [2] is 8.54 to 10.4 µM.

As to `O=C(/C=C(\O)C(=O)O)/C=C/c1cn(Cc2ccc(OC(F)(F)F)cc2)c2ccccc12` [5e], the EC50 by setting is: under setting [1], 9.4 ± 2.26 µM; under setting [2], 7.36 to 11.9 µM.

On to `N#Cc1ccc(Cn2cc(/C=C/C(=O)/C=C(\O)C(=O)O)c3ccccc32)cc1` [5g, (2Z,5E)-6-(1-(4-cyanobenzyl)-1H-indol-3-yl)-2-hydroxy-4-oxohexa-2,5-dienoic acid], for which the EC50 is 14.5 ± 4.2 µM under setting [1] and 10.9 to 19.3 µM under setting [2].

For the molecule `O=C(/C=C(\O)C(=O)O)/C=C/c1cn(Cc2ccc(F)cc2)c2ccc(Cl)cc12` [5i, (2Z,5E)-6-(5-chloro-1-(4-fluorobenzyl)-1H-indol-3-yl)-2-hydroxy-4-oxohexa-2,5-dienoic acid], the EC50 reads like this: under setting [1], 6.77 ± 1.17 µM; under setting [2], 5.69 to 8.03 µM.

In the case of `CCOC(=O)/C(O)=C/C(=O)/C=C/c1cn(Cc2ccc(OC(F)(F)F)cc2)c2ccccc12` [6e], under setting [1], the EC50 is 50 µM. The “antiviral activity against SARS-CoV-2 (in words)” value (plaque assay) is recorded as “low activity”.

`CCOC(=O)/C(O)=C/C(=O)c1cn(Cc2ccc(F)cc2)c2ccccc12` [8d, Ethyl (Z)-4-(1-(4-fluorobenzyl)-1H-indol-3-yl)-2-hydroxy-4-oxobut-2-enoate]: the EC50 under setting [1] was more than 50 µM. The “antiviral activity against SARS-CoV-2 (in words)” value (plaque assay) is “not showed any antiviral activity up to the maximum concentration tested”.

Take `CC(C)=Cn1cc(/C=C/C(=O)/C=C(\O)C(=O)O)c2ccccc21` [9c, (2Z,5E)-2-hydroxy-6-(1-(2-methylprop-1-en-1-yl)-1H-indol-3-yl)-4-oxohexa-2,5-dienoic acid]: the EC50 under setting [1] worked out at 4.23 ± 0.96 µM and the EC50 under setting [2] lay within 3.33 to 5.26 µM.

The values are drawn from PMC12344683, “N-alkyl and N-benzyl indoles are anti-SARS-CoV-2 agents and nsp13 inhibitors” (Journal of Enzyme Inhibition and Medicinal Chemistry, 2025).
